Measured values: patent US20240050579A1, “HYALURONAN-NIMESULIDE CONJUGATE FOR TREATING LOCALLY ADVANCED OR METASTATIC TUMORS” (Aihol Corporation, priority 2022, published 2024)

Assays:
Format in all cases: in vivo
[1] = system: HT-29 human colon adenocarcinoma cells; experiment: Tumor volume / TGI in HT-29 tumor-bearing mice; details: for TGI (tumor growth inhibition rate): HT-29 mice, 5-FU 50 mg/kg QW
Description: (§1) Immunocompromised, Nu/Nu, Female athymic nu/nu (nude) mice (ages 5-6 weeks, LASCO) were purchased from LASCO. Animals were housed in individual HEPA ventilated cages (Innocage® IVC, Innovive USA) housed for stabilization. Fluorescent lighting was provided on a 12-hour cycle under temperature (20-23° C.) and humidity control (30-70%). Rodent feed and water were provided ad libitum.
(§2) HT-29 human colon adenocarcinoma cells (2×10^7) in PBS buffer were implanted subcutaneously on the right flank of each mouse. Once tumors were detectable, palpable and measurable, the primary tumor volumes were measured and recorded every 3 or 4 days. Tumor volume was calculated as ½(4π/3)(L/2)(W/2)H, where L is the length, W is the width, and H is the height of the tumor. […] Subjects were terminated from the study when the tumor volume reached approximately 1500 mm^3 or the body weight loss was greater than 20% (IACUC protocol limits).

[2] = system: CT26 mouse colon carcinoma; experiment: Tumor volume / TGI in CT26 mice; details: 5-FU alone 50 mg/kg IV QW
Description: Immunocompetent, female Balb/C […] mice (ages 6-8 weeks) were ordered and received from National Laboratory Animal Center. Animals were housed on irradiated corncob bedding in micro-isolator caging. Fluorescent lighting was provided on a 12-hour cycle under temperature (20-23° C.) and humidity control (30-70%). Rodent feed and autoclaved acidified water (pH 2.5-3) were provided ad libitum.
CT26 is an N-nitroso-N-methylurethane-(NNMU) induced, undifferentiated mouse colon carcinoma cell line. CT26 carcinoma cells were grown in McCoy's 5a culture medium supplemented with 10% (v/v) FBS and 1% PSN antibiotic mixture. The cells were maintained in an incubator with a humidified environment of 5% CO^2 at 37° C. in a 175 cm 2 flask and subcultured 2-3 times each week. On the study day, CT26 cells were thawed and prepared for inoculation into mice. Cells were washed in PBS, counted, and resuspended in cold PBS at concentrations of 2×10^6 viable cells/0.1 ml. […]
Animals were monitored weekly for palpable tumors or any changes in appearance or behavior. Once tumors were palpable, they were measured using calipers. Tumor volume was calculated using the following equation ½(4π/3)(L/2)(W/2)H, where L is the length, W is the width, and H is the height of the tumor. […] Data were expressed as mean±SEM.

[3] = system: MDA-MB-231 human breast cancer cells; experiment: Tumor volume in MDA-MB-231 tumor-bearing mice; details: 5-FU alone 30 mg/kg TIW vs vehicle control
Description: as §1
as §2, with “MDA-MB-231” for “HT-29”, “breast cancer Cells (5×10^6)” for “colon adenocarcinoma cells (2×10^7)”, “½×L×W^2,” for “½(4π/3)(L/2)(W/2)H,”, “length and” for “length,”, “width.” for “width, and H is the height of the tumor.”

For O=c1[nH]cc(F)c(=O)[nH]1 [5-FU, 5-fluorouracil], the “TGI (tumor growth inhibition rate)” value ([1]; D21) was ~60%, the “TGI (tumor growth inhibition rate)” value ([1]; D28) was ~45% and the tumor growth ([1]; HT-29 tumor-bearing mice, 5-FU alone 50 mg/kg QW vs vehicle control) was “did not reduce tumor growth”. The TGI rate [2] was “approximately 70%” and the tumor growth [3] was “did reduce tumor growth”.
